Literature values, collected in patent EP4541846A1, “ENCAPSULANT FILM COMPOSITION, AND ENCAPSULANT FILM COMPRISING SAME” (LG Chem, Ltd., priority 2022, dated 2024).
Structures can show the parent of a compound that is named as a salt.

Conditions: marked by acute toxicity, oral/acute toxicity, percutaneous/skin corrosivity/skin irritation/severe eye damage/eye irritation/dermal hypersensitivity, or the like

| SMILES | harmfulness/dangerousness classification in SDS |
| --- | --- |
| C=CCOC(=O)OC(=O)OCC=C [diallyl decarbonate] | harmful |
| C=CCOC(=O)/C=C\C(=O)OCC=C [diallyl maleate] | harmful |
| C=CCOC(=O)/C=C/C(=O)OCC=C [diallyl fumarate] | harmful |
